Source: patent publication US4481201A, “Pharmaceutical composition containing N,N^3 -di-(β-bromopropionyl)-N^1,N^2 -dispirotripiperazinium dichloride” (Vsesojuzny Nauchno-Issledovatelsky Khimoko-Farmasevtichesky …, priority 1981, dated 1984)
Entries after “also recorded” stand apart in the source; their conditions may differ. Like-named read-outs stand apart in the source and are kept apart here.

Legend:
[1] = Toxicity on single and repeated administration to mice; format: in vivo; conditions: for MTD / LD50: mouse, in vivo; for MTD: read-out: MTD; for Ik index of toxic effect cumulation: intraperitoneal administration; for LD50: read-out: DL50 (average lethal dose)
Description: (3) acute toxicity of the compounds upon a single and repeated administration to white noninbred mice places into standard cages with 8 animals in each.
In the investigation of toxic properties of the compounds according to the present invention there has been determined the absolutely lethal dose (DL95), average lethal dose (DL50) and MTD. For compounds 1 and 2 there were determined DL95 and DL50 on healthy white mice with the body mass of 18-21 g at a single and repeated (once a day, daily for 7 days) intraperitoneal administration.

Ienssen's sarcoma = assay: Growth of graft Ienssen sarcoma in rats; format: in vivo
Source text: (§1) The antitumor activity has been studied on white rats weighing 110-130 g, as well as on white noninbred and inbred mice weighing 17-21 g with ligated tumors. The treatment is started 5-7 days transplanting of solid tumors and the following day after the transplanting of leukotic strains. Use has been made of the following transplantable strains of the tumors:
(§2) (1) rats: Ienssen's sarcoma, sarcoma 45, sarcoma M-1, sarcoma 536;
(§3) The compounds of the general formula (I), wherein X represents Cl^- (compound 1), Br^- (compound 2) are well-soluble in an isotonic solution of sodium chloride and they are administered intraperitoneally. The doses of the compounds have been calculated in mg per kg of the animal bodyweight.

Solubility = format: physicochemical
Description: as §3
To a mixture of 3 g of N^1,N^2 -dispirotripiperazinium dichloride, 1.5 g of lithium hydroxide, 1 ml of water and 10 ml of ether a solution of 5.2 g of β-bromopropionic acid chlorid in 5 ml of ether is added under vigorous stirring and at a temperature of 5° to 10° C. The reaction mass is stirred for 2 hours at the temperature of 15° C. The residue is filtered off, dissolved in 10 ml of water; the resulting aqueous solution is poured in 100 ml of methanol.

sarcoma M-1 = assay: Growth of graft sarcoma M-1 in rats; format: in vivo; conditions: rats, 85 mg/kg per os, 6 injections, one experiment
Source text: as §1, §2, §3

sarcoma 180 = assay: Growth of graft sarcoma 180 in mice; format: in vivo, noninbred white mice
Source text: as §1
(2) noninbred white mice: sarcoma 180, sarcoma AK, sarcoma 37, carcinoma HK;
as §3

sarcoma 536 = assay: Growth of graft sarcoma 536 in rats; format: in vivo; parameters: key to tumor growth suppression class, Sarcoma 536: +++: tumor growth suppression by 95-100%; ++: tumor growth suppression by 80-95%; +: tumor growth suppression by 60-80%; tumor growth suppression by 30-60%; 0: no effect; conditions: for tumor growth suppression class, Sarcoma 536: rats
Source text: as §1, §2, §3

leukemia La = assay: Life span of mice with transplantable leukemia La; format: in vivo, inbred mice; conditions: mice with transplantable leukemia La
Source text: as §1
(§4) (3) inbred mice: leukemia La, leukemia L1210 and P-388.
(§5) The activity of compounds relative to leukosis has been assessed by the life span (It) of treated animals as compared to the control ones. It --index of suppression of leukosis development is calculated by the formula: [formula]

[2] = Distribution of C^14-labeled preparation within organs and tissues of rats with sarcoma M-1; format: in vivo; conditions: rats with sarcoma M-1, intravenous
Source text: Furthermore, the particular distribution of the preparation according to the present invention within organs and tissues should also be noted.
(§6) In the case of administration of the preparation according to the present invention labeled with C^14, a higher level of radioactivity in blood is observed than in the case of prospidin labeled with C^14. A higher rate of accumulation of the preparation according to the present invention as compared to prospidin is observed in larynx, windpipe, bronchi, bone marrow, tumor and thyroid gland. The preparation according to the present invention labeled with C^14 is withdrawn from the organism within 24 hours after the intravenous administration mainly with urine, while C^14 --labeled prospidin is retained in the organism for a longer period.

sarcoma 45 = assay: Growth of graft sarcoma 45 in rats; format: in vivo; conditions: rats
Source text: as §1, §2, §3

leukemia L1210 = assay: Life span of mice with transplantable leukemia L1210; format: in vivo, inbred mice; conditions: mice with transplantable leukemia L1210
Source text: as §1, §4, §5

leukemia P-388 = assay: Life span of mice with transplantable leukemia P-388; format: in vivo, inbred mice; conditions: mice with transplantable leukemia P-388
Source text: as §1, §4, §5

transplantable leukemia = assay: Activity relative to leukoses of inbred mice (overall); format: in vivo
Source text: (2) activity of the compounds relative to leukoses of inbred mice;
as §1, §4, §5

[3] = Withdrawal of radioactivity from the rats' organism; format: in vivo; parameters: concentration or dose not given beside the values; conditions: 24 hours after intravenous administration, C^14-labeled
Source text: as §6

[4] = mice, single intraperitoneal administration
[5] = ip, mice, single intraperitoneal administration
[6] = rats, per os, 145 mg/kg, 7 injections

O=C(CCBr)N1CC[N+]2(CC1)CC[N+]1(CCN(C(=O)CCBr)CC1)CC2 [Compound 3]
MTD ([1]; po, repeated administration, suspension per os): 83 mg/kg
It, % tumor growth suppression index (Ienssen's sarcoma; rats, 83 mg/kg per os (MTD), 7 injections, one experiment): 50%
Change in the animal body weight, test (Ienssen's sarcoma; rats, 83 mg/kg per os, 7 injections, one experiment): -7 g
solubility in water (Solubility): sparingly soluble
Change in the animal body weight, test (sarcoma M-1): +1 g
suppression of sarcoma 180 growth (sarcoma 180; mice, per os, at MTD (dose not given)): 35

CN(C)c1nc(NP(=O)(N2CC2)N2CC2)c2c(ncn2C)n1 [Phopurine, 2-dimethylamino-6-diethyleneimido-phosphamido-7-methylpurine, reference compound]
effect on the growth of sarcoma 536 (sarcoma 536; dose not given): does not affect the growth
tumor growth suppression class, Sarcoma 536 (sarcoma 536): 0
Ik index of toxic effect cumulation ([1]; mice): 12
DL95 (absolutely lethal dose) [1, 4]: 430 mg/kg
LD50 [1, 5]: 280 mg/kg
MTD ([1]; ip, repeated intraperitoneal administration): 120 mg/kg
It, % index of suppression of leukosis development (leukemia La): 204%
Life span (leukemia La): 22.5 ± 3.4 days
slowing of the growth of sarcoma 180 (sarcoma 180; dose not given): 36%
tumor growth suppression class, Sarcoma 180 (sarcoma 180; mice): + (tumor growth suppression by 60-80%)

OC(CCl)CN1CC[N+]2(CC1)CC[N+]1(CCN(CC(O)CCl)CC1)CC2 (stereo not drawn) [Prospidin, 3,12-diaza-6,9-diazaniumdispiro-[5,2,5,2]-hexadecane-3,12-bis-(3-chloro-2-hydroxypropyl)-dichloride, reference compound]
Coefficient of differential accumulation, Blood ([2]; 15 min): 0.4
Coefficient of differential accumulation, Bone marrow ([2]; 15 min): 0.8
Coefficient of differential accumulation, Bronchi ([2]; 15 min): 2.16
Coefficient of differential accumulation, Hypophysis ([2]; 15 min): 2.4
Coefficient of differential accumulation, Kidneys ([2]; 15 min): 3.34
Coefficient of differential accumulation, Larynx ([2]; 15 min): 0.42
Coefficient of differential accumulation, Liver ([2]; 15 min): 1.43
Coefficient of differential accumulation, Lungs ([2]; 15 min): 1.54
Coefficient of differential accumulation, Lymphonodes ([2]; 15 min): 0.57
Coefficient of differential accumulation, Spleen ([2]; 15 min): 0.43
Coefficient of differential accumulation, Thymus gland ([2]; 15 min): 0.16
Coefficient of differential accumulation, Tumor ([2]; 15 min): 0.65
Coefficient of differential accumulation, Tyroid gland ([2]; 15 min): 1.2
Coefficient of differential accumulation, Windpipe ([2]; 15 min): 0.38
Coefficient of differential accumulation, Blood ([2]; 30 min): 0.1
Coefficient of differential accumulation, Bone marrow ([2]; 30 min): 0.6
Coefficient of differential accumulation, Bronchi ([2]; 30 min): 0.82
Coefficient of differential accumulation, Hypophysis ([2]; 30 min): 1.65
Coefficient of differential accumulation, Kidneys ([2]; 30 min): 0.67
Coefficient of differential accumulation, Larynx ([2]; 30 min): 0.32
Coefficient of differential accumulation, Liver ([2]; 30 min): 0.75
Coefficient of differential accumulation, Lungs ([2]; 30 min): 0.45
Coefficient of differential accumulation, Lymphonodes ([2]; 30 min): 0.48
Coefficient of differential accumulation, Spleen ([2]; 30 min): 0.21
Coefficient of differential accumulation, Thymus gland ([2]; 30 min): 0.06
Coefficient of differential accumulation, Tumor ([2]; 30 min): 0.37
Coefficient of differential accumulation, Tyroid gland ([2]; 30 min): 1.06
Coefficient of differential accumulation, Windpipe ([2]; 30 min): 0.21
Coefficient of differential accumulation, Blood ([2]; 60 min): 0.07
Coefficient of differential accumulation, Bone marrow ([2]; 60 min): 0.52
Coefficient of differential accumulation, Bronchi ([2]; 60 min): 0.5
Coefficient of differential accumulation, Hypophysis ([2]; 60 min): 1.47
Coefficient of differential accumulation, Kidneys ([2]; 60 min): 0.56
Coefficient of differential accumulation, Larynx ([2]; 60 min): 0.14
Coefficient of differential accumulation, Liver ([2]; 60 min): 0.67
Coefficient of differential accumulation, Lungs ([2]; 60 min): 0.2
Coefficient of differential accumulation, Lymphonodes ([2]; 60 min): 0.14
Coefficient of differential accumulation, Spleen ([2]; 60 min): 0.11
Coefficient of differential accumulation, Thymus gland ([2]; 60 min): 0.05
Coefficient of differential accumulation, Tumor ([2]; 60 min): 0.3
Coefficient of differential accumulation, Tyroid gland ([2]; 60 min): 0.75
Coefficient of differential accumulation, Windpipe ([2]; 60 min): 0.1
Coefficient of differential accumulation, Blood ([2]; 24 hours): 0.01
Coefficient of differential accumulation, Bone marrow ([2]; 24 hours): 0.18
Coefficient of differential accumulation, Bronchi ([2]; 24 hours): 0.25
Coefficient of differential accumulation, Hypophysis ([2]; 24 hours): 0.55
Coefficient of differential accumulation, Kidneys ([2]; 24 hours): 0.15
Coefficient of differential accumulation, Larynx ([2]; 24 hours): 0.05
Coefficient of differential accumulation, Liver ([2]; 24 hours): 0.13
Coefficient of differential accumulation, Lungs ([2]; 24 hours): 0.06
Coefficient of differential accumulation, Lymphonodes ([2]; 24 hours): 0.04
Coefficient of differential accumulation, Spleen ([2]; 24 hours): 0.06
Coefficient of differential accumulation, Thymus gland ([2]; 24 hours): 0.02
Coefficient of differential accumulation, Tumor ([2]; 24 hours): 0.07
Coefficient of differential accumulation, Tyroid gland ([2]; 24 hours): 0.22
Coefficient of differential accumulation, Windpipe ([2]; 24 hours): 0.07
tumor growth suppression class, Sarcoma 536 (sarcoma 536): ++ (tumor growth suppression by 80-95%)
Ik index of toxic effect cumulation ([1]; mice): 58
DL95 (absolutely lethal dose) ([1]; mice, repeated intraperitoneal administration (once a day, daily for 7 days)): 250 mg/kg
DL50 (average lethal dose) [1, 4]: 1,000 mg/kg
DL95 (absolutely lethal dose) [1, 4]: 1200 mg/kg
LD50 [1, 5]: 1000 mg/kg
Ch/T chemotherapeutical index (ratio of MTD to minimum effective dose) (Ienssen's sarcoma; Ienssen sarcoma): 27
Change in the bodyweight of animals, test (Ienssen's sarcoma; [6]): -9 g
It, % (Ienssen's sarcoma; [6]): +30%
tumor growth suppression class, Sarcoma 45 (sarcoma 45): ++ (tumor growth suppression by 80-95%)
It, % index of suppression of leukosis development (leukemia L1210): 0%
Life span (leukemia L1210): 8.1 ± 0.1 days
It, % index of suppression of leukosis development (leukemia P-388): 50%
Life span (leukemia P-388): 14.8 ± 0.3 days
It, % index of suppression of leukosis development (leukemia La): 0%
Life span (leukemia La): 6.6 ± 0 days
effect on transplantable leukemia in mice (transplantable leukemia): does not affect the development of leukemiae; also recorded: does not provide any effect
Withdrawal of radioactivity, Feces [3]: 7.0%
Withdrawal of radioactivity, Total [3]: 75.0%
Withdrawal of radioactivity, Urina [3]: 68.0%
tumor growth suppression class, Sarcoma 180 (sarcoma 180; mice): ++ (tumor growth suppression by 80-95%)
